Measured values published in patent US12054498B2, “Heteroaromatic macrocyclic ether chemotherapeutic agents” (Nuvalent, Inc., priority 2020, dated 2024).

How the values were obtained:
ALK-wt = biological target: T1, ALK-wt (Homo sapiens, UniProt Q9UM73); test: Biochemical kinase assay, ALK-wt kinase domain; details: apparent inhibitory constant, Morrison equation; ATP 2 mM in substrate solution; read-out: ALK-wt Ki^app
T1 construct: purchased Carna 08-518
Protocol: (§1) First, 250 nL of compound dissolved in DMSO (100-fold of the desired concentration) was dispensed into a 384-well plate. A 12.5 μL substrate solution containing ATP (2 mM) and fluorogenic phosphorylation substrate AQT0101 (26 μM for ALK and ROS1, AssayQuant) or AQT0104 (26 μM for TRKA, AssayQuant) in buffer (50 mM HEPES pH 7.5, 0.01% Brij-35, 0.5 mM EGTA, 10 mM MgCl2) was added and mixed thoroughly. Then, a 12.5 μL kinase solution containing ALK-wt (1.5 nM, Carna, 08-518), ALK ALK L1196M/G1202R (3 nM, SignalChem, A19-12NG), ROS1-wt (0.6 nM, Carna, 08-163), ROS1-G2032R (0.5 nM, SignalChem, R14-12BG), or TRKA-wt (1 nM, BPS Bio, 40280) kinase domains in buffer (50 nM HEPES pH 7.5, 0.01% Brij-35, 2% glycerol, 0.4 mg/mL BSA, 0.5 mM EGTA, and 10 mM MgCl2) was added and mixed thoroughly. The plate was sealed and read by SpectraMax Paradigm at λ=485 nm every 2 minutes for 120 minutes at 30° C. Initial rates of reaction (v) were calculated from the change in fluorescence intensity over time during the initial, linear portion of the reaction. Finally, apparent inhibitory constants (Ki^app) were determined from regression of v and I (inhibitor concentration) to Morrison Equation (E=enzyme concentration): […]

ALK L1196M/G1202R = biological target: T2, ALK L1196M/G1202R (Homo sapiens, UniProt Q9UM73, G1202R/L1196M); test: Biochemical kinase assay, ALK L1196M/G1202R kinase domain; details: apparent inhibitory constant, Morrison equation; ATP 2 mM in substrate solution; read-out: ALK-L1196M-G1202R Ki^app
T2 construct: purchased SignalChem A19-12NG
Protocol: as §1

ROS1-wt = biological target: T3, ROS1-wt (Homo sapiens, UniProt P08922); test: Biochemical kinase assay, ROS1-wt kinase domain; details: apparent inhibitory constant, Morrison equation; ATP 2 mM in substrate solution; read-out: ROS1-wt Ki^app
T3 construct: purchased Carna 08-163
Protocol: as §1, with “Then, a 12.5 μL kinase solution containing ALK-wt (1.5 nM, Carna, 08-518), ALK ALK L1196M/G1202R (3 nM, SignalChem, A19-12NG), ROS1-wt (0.6 nM, Carna, 08-163), ROS1-G2032R (0.5 nM, SignalChem, R14-12BG), or TRKA-wt (1 nM, BPS Bio, 40280) kinase domains in buffer (50 nM HEPES pH 7.5, 0.01% Brij-35, 2% glycerol, 0.4 mg/mL BSA, 0.5 mM EGTA, and 10 mM MgCl2) was added and mixed thoroughly.” left out

ROS1-G2032R = biological target: T4, ROS1-G2032R (Homo sapiens, UniProt P08922, G2032R); test: Biochemical kinase assay, ROS1-G2032R kinase domain; details: apparent inhibitory constant, Morrison equation; ATP 2 mM in substrate solution; read-out: ROS1-G2032R Ki^app
T4 construct: purchased SignalChem R14-12BG
Protocol: as §1, with “Then, a 12.5 μL kinase solution containing ALK-wt (1.5 nM, Carna, 08-518), ALK ALK L1196M/G1202R (3 nM, SignalChem, A19-12NG), ROS1-wt (0.6 nM, Carna, 08-163), ROS1-G2032R (0.5 nM, SignalChem, R14-12BG), or TRKA-wt (1 nM, BPS Bio, 40280) kinase domains in buffer (50 nM HEPES pH 7.5, 0.01% Brij-35, 2% glycerol, 0.4 mg/mL BSA, 0.5 mM EGTA, and 10 mM MgCl2) was added and mixed thoroughly.” left out

TRKA-wt = biological target: T5, TRKA-wt (Homo sapiens, UniProt P04629); test: Biochemical kinase assay, TRKA-wt kinase domain; details: apparent inhibitory constant, Morrison equation; ATP 2 mM in substrate solution; read-out: TRKA-wt Ki^app
T5 construct: or TRKA-wt (1 nM, BPS Bio, 40280) kinase domains in buffer; purchased BPS Bio 40280
Protocol: as §1

[1] = biological target: T6, Ba/F3 cells CD74-ROS1 wild-type (wt) (Homo sapiens, UniProt P08922); test: Ba/F3 cell proliferation assay, CD74-ROS1 wild-type; assay type: cell-based; details: 72 hours, CellTiter-Glo
T6 construct: fusion of the C-terminus of ROS1 with the N-terminus of various partner proteins; host or cells: Ba/F3 (RIKEN), retroviral pMSCV-puro; the other entry of the earlier key: CD74 (P04233, HLA class II histocompatibility antigen gamma chain)
Method in brief: (§2)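 Cells were seeded 1 day, then exposed to a 3-fold compound dilution series for 72 hours. Viability was read by CellTiter-Glo luminescence; IC50 came from four-parameter logistic fitting of percent inhibition.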

[2] = biological target: T7, Ba/F3 cells CD74-ROS1 G2032R (Homo sapiens, UniProt P08922, G2032R); test: Ba/F3 cell proliferation assay, CD74-ROS1 G2032R; assay type: cell-based; details: 72 hours, CellTiter-Glo
T7 construct: fusion of the C-terminus of ROS1 with the N-terminus of various partner proteins; host or cells: Ba/F3 (RIKEN), retroviral pMSCV-puro; the other entry of the earlier key: CD74 (P04233, HLA class II histocompatibility antigen gamma chain)
Method in brief: as §2

[3] = biological target: T8, Ba/F3 cells EML4-ALK wt (variant 1) (Homo sapiens, UniProt Q9UM73); test: Ba/F3 cell proliferation assay, EML4-ALK wt (variant 1); assay type: cell-based; details: 72 hours, CellTiter-Glo
T8 construct: echinoderm microtubule-associated protein-like 4 (EML4) gene and the ALK tyrosine kinase domain; host or cells: Ba/F3 (RIKEN), retroviral pMSCV-puro; the other entry of the earlier key: EML4 (Q9HC35, Echinoderm microtubule-associated protein-like 4)
Method in brief: (§3)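 Stable fusion-expressing Ba/F3 clones, 1,000 cells/well. Compounds for 72 h, CellTiter-Glo readout; IC50 by 4-parameter logistic regression.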

[4] = biological target: T9, Ba/F3 cells EML4-ALK L1196M/G1202R (variant 1) (Homo sapiens, UniProt Q9UM73, G1202R/L1196M); test: Ba/F3 cell proliferation assay, EML4-ALK L1196M/G1202R (variant 1); assay type: cell-based; details: 72 hours, CellTiter-Glo
T9 construct: echinoderm microtubule-associated protein-like 4 (EML4) gene and the ALK tyrosine kinase domain; host or cells: Ba/F3 (RIKEN), retroviral pMSCV-puro; the other entry of the earlier key: EML4 (Q9HC35, Echinoderm microtubule-associated protein-like 4)
Method in brief: as §3

Ba/F3 cells TPM3-TRKA = biological target: T10, Ba/F3 cells TPM3-TRKA (Homo sapiens, UniProt P04629); test: Ba/F3 cell proliferation assay, TPM3-TRKA; assay type: cell-based; details: 72 hours, CellTiter-Glo, read-out: TPM3-NTRK1-wt IC50
T10 construct: host or cells: Ba/F3 (RIKEN), retroviral pMSCV-puro; the other entry of the earlier key: TPM3 (P06753, Tropomyosin alpha-3 chain)
Method in brief: as §3

[5] = system: TPM3-NTRK1-wt IC50 / primary target IC50 (e.g. CD74-ROS1-wt); test: TRKA selectivity in Ba/F3 cells (TRKA potency divided by primary target potency); assay type: cell-based; details: for TPM3-NTRK1-wt/CD74-ROS1-G2032R selectivity ratio: TRKA potency / CD74-ROS1-G2032R potency; for TPM3-NTRK1-wt/CD74-ROS1-wt selectivity ratio: TRKA potency / CD74-ROS1-wt potency; for TPM3-NTRK1-wt/EML4-ALK-L1196M-G1202R selectivity ratio: TRKA potency / EML4-ALK-L1196M-G1202R potency; for TPM3-NTRK1-wt/EML4-ALK-wt selectivity ratio: TRKA potency / EML4-ALK-wt potency
Protocol: TRKA selectivity was calculated by dividing a compound's TRKA potency by its primary target potency (e.g. TPM3-NTRK1-wt IC50/CD74-ROS1-wt IC50). Compound selectivity can be interpreted by binning ratio values: bin A for very high selectivity, ratio >30-fold; bin B for high selectivity, ratio >10-fold; bin C for moderate selectivity, ratio ≥1; and bin D for low selectivity, ratio <1. […] (nd=not determined).

T8 sequence (Q9UM73 with tags, fused parts or gaps): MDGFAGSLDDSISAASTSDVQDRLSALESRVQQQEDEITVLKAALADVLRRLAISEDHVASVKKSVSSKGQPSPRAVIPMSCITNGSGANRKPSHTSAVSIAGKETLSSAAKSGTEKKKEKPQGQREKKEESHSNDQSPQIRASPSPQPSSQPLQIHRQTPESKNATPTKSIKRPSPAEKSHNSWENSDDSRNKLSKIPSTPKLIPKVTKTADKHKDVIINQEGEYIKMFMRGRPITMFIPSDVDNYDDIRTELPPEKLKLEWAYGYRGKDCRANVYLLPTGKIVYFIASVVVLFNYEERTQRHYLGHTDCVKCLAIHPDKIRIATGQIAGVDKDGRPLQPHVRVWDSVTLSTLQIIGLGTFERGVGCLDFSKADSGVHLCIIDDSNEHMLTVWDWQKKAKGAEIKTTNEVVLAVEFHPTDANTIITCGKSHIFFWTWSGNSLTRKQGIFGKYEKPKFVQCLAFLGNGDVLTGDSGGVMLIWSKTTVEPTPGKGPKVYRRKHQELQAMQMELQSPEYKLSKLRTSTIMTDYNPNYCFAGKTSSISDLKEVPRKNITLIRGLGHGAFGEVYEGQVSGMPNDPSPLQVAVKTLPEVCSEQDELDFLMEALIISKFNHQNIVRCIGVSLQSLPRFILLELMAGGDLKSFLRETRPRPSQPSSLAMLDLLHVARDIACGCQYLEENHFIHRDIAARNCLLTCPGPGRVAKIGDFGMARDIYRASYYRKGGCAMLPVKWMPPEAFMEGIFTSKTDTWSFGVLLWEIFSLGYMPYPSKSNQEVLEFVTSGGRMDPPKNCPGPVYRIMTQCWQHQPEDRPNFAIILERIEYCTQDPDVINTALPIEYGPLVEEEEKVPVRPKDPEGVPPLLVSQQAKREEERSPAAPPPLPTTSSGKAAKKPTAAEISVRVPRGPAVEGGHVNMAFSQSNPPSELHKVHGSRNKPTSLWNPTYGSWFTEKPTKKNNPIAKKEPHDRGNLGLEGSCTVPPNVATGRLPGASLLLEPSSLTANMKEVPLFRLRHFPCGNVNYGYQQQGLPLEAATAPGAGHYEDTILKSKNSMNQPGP
T6 sequence (P08922 1883-2347 limits assumed): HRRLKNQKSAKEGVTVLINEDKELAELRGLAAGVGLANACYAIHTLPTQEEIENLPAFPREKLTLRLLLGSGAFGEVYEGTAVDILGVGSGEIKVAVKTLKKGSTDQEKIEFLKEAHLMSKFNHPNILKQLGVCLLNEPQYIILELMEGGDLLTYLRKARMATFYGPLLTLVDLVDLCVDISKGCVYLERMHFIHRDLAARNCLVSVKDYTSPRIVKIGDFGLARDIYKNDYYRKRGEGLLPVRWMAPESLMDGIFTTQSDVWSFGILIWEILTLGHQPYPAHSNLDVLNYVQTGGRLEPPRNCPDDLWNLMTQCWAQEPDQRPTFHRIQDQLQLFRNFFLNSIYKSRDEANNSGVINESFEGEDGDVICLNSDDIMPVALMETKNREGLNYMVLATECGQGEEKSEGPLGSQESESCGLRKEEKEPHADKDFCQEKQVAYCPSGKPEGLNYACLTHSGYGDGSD
T4 sequence (P08922 1945-2222 G2032R limits assumed): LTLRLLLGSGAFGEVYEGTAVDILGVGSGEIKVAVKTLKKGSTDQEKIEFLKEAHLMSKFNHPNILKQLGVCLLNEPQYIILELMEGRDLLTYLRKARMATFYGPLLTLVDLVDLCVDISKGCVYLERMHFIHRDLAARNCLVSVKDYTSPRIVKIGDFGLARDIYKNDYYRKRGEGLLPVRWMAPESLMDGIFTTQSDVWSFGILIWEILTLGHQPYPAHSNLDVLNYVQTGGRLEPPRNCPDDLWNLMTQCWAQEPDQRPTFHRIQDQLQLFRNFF
T1 sequence (Q9UM73 1116-1392 limits assumed): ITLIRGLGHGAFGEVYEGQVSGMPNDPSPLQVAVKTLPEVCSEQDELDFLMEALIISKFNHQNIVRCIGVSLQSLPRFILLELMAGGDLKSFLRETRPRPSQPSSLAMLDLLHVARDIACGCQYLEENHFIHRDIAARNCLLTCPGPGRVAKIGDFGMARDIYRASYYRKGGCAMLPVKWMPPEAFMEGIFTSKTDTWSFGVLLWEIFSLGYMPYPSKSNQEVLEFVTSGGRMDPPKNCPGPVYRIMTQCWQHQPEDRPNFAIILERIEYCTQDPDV
T5 sequence (P04629 510-781 limits assumed): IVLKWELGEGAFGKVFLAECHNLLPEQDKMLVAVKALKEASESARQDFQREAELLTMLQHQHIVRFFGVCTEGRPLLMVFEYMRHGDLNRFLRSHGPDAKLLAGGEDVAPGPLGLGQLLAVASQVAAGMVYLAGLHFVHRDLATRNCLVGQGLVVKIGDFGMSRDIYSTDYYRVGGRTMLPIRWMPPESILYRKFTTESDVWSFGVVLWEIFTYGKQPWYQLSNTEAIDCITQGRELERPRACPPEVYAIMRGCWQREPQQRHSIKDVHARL
T9 sequence (Q9UM73 with tags, fused parts or gaps L1196M/G1202R): as the sequence (Q9UM73 with tags, fused parts or gaps) above, with L635M, G641R counted along it
T2 sequence (Q9UM73 1116-1392 L1196M/G1202R limits assumed): as the sequence (Q9UM73 1116-1392 limits assumed) above, with L81M, G87R counted along it
T10 sequence (P04629 510-796 limits assumed): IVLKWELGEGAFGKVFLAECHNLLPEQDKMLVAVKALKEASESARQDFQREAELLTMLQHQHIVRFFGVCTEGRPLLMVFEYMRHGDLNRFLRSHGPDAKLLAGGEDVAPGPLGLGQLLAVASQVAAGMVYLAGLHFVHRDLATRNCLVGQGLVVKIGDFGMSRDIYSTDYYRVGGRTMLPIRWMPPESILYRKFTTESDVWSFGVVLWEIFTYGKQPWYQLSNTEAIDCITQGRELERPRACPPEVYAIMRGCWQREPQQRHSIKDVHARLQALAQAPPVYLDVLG
T7 sequence (P08922 1883-2347 G2032R limits assumed): as the sequence (P08922 1883-2347 limits assumed) above, with G150R counted along it
T3 sequence (P08922 1945-2222 limits assumed): as the sequence (P08922 1945-2222 G2032R limits assumed) above, with R88G counted along it

Ki (ALK-wt) | Ki (ALK L1196M/G1202R) | Ki (ROS1-wt) | Ki (ROS1-G2032R) | Ki (TRKA-wt) | IC50 [1] | IC50 [2] | IC50 [3] | IC50 [4] | IC50 (Ba/F3 cells TPM3-TRKA) | Compound | TPM3-NTRK1-wt/CD74-ROS1-G2032R selectivity ratio [5] | TPM3-NTRK1-wt/CD74-ROS1-wt selectivity ratio [5] | TPM3-NTRK1-wt/EML4-ALK-L1196M-G1202R selectivity ratio [5] | TPM3-NTRK1-wt/EML4-ALK-wt selectivity ratio [5]
< 50 nM | < 50 nM | < 50 nM | 50 to 500 nM | > 500 nM | 0.1 to 50 nM | 0.1 to 50 nM | 0.1 to 50 nM | 50 to 500 nM | > 500 nM | C[C@H]1Oc2cc(cnc2N)-c2c(cnn2C2CCC2)Cn2nncc2-c2ccc(F)cc21 [Example 7, (19R)-3-cyclobutyl-16-fluoro-19-methyl-20-oxa-3,4,8,9,10,23-hexaazapentacyclo[19.3.1.0^2,^6.0^8,^12.0^13,^18]pentacosa-1(24),2(6),4,9,11,13,15,17,21(25),22-decaen-22-amine] | A (bin A for very high selectivity, ratio >30-fold) | A (bin A for very high selectivity, ratio >30-fold) | B (bin B for high selectivity, ratio >10-fold) | A (bin A for very high selectivity, ratio >30-fold)
< 50 nM | < 50 nM | < 50 nM | < 50 nM | 50 to 500 nM | 0.1 to 50 nM | 0.1 to 50 nM | 0.1 to 50 nM | 0.1 to 50 nM | > 500 nM | CCn1ncc2c1-c1cnc(N)c(c1)O[C@H](C)c1cc(F)ccc1-c1cn(C)nc1C2 [Example 9, (19R)-3-ethyl-16-fluoro-10,19-dimethyl-20-oxa-3,4,9,10,23-pentaazapentacyclo[19.3,1.0^2,^6.0^8,^12.0^13,^18]pentacosa-1(24),2(6),4,8,11,13,15,17,21 (25),22-decaen-22-amine] | A (bin A for very high selectivity, ratio >30-fold) | A (bin A for very high selectivity, ratio >30-fold) | B (bin B for high selectivity, ratio >10-fold) | A (bin A for very high selectivity, ratio >30-fold)
< 50 nM | < 50 nM | < 50 nM | < 50 nM | > 500 nM | 0.1 to 50 nM | 0.1 to 50 nM | 0.1 to 50 nM | 50 to 500 nM | > 500 nM | C[C@H]1Oc2cc(cnc2N)-c2c(cnn2C2CCC2)Cn2ncc(C#N)c2-c2ccc(F)cc21 [Example 10, (19R)-22-amino-3-cyclobutyl-16-fluoro-19-methyl-20-oxa-3,4,8,9,23-pentaazapentacyclo[19.3.1.0^2,^6.0^8,^12.0^13,^18]pentacosa-1(24),2(6),4,9,11,13,15,1 7,21(25),22-decaene-11-carbonitrile] | A (bin A for very high selectivity, ratio >30-fold) | A (bin A for very high selectivity, ratio >30-fold) | B (bin B for high selectivity, ratio >10-fold) | A (bin A for very high selectivity, ratio >30-fold)
< 50 nM | 50 to 500 nM | < 50 nM | 50 to 500 nM | > 500 nM | 0.1 to 50 nM | 0.1 to 50 nM | 50 to 500 nM | > 500 nM | > 500 nM | C[C@H]1Oc2cc(cnc2N)-c2c(cnn2C(F)F)Cn2nccc2-c2ccc(F)cc21 [Example 12, (19R)-3-(difluoromethyl)-16-fluoro-19-methyl-20-oxa-3,4,8,9,23-pentaazapentacyclo[19.3.1.0^2,^6.0^8,^12.0^13,^18]pentacosa-1(24),2(6),4,9,11,13,15,17,21(25),22-decaen-22-amine] | A (bin A for very high selectivity, ratio >30-fold) | A (bin A for very high selectivity, ratio >30-fold) | C (bin C for moderate selectivity, ratio ≥1) | A (bin A for very high selectivity, ratio >30-fold)
< 50 nM | < 50 nM | < 50 nM | < 50 nM | > 500 nM | 0.1 to 50 nM | 0.1 to 50 nM | 0.1 to 50 nM | 0.1 to 50 nM | > 500 nM | C[C@H]1Oc2cc(cnc2N)-c2c(cnn2C2CCC2)Cc2nn(C)nc2-c2ccc(F)cc21 [Example 13, (19R)-3-cyclobutyl-16-fluoro-10,19-dimethyl-20-oxa-3,4,9,10,11,23-hexaazapentacyclo[19.3.1.0^2,^6.0^8,^12.0^13,^18]pentacosa-1(24),2(6),4,8,11,13,15,17,21(25),22-decaen-22-amine] | A (bin A for very high selectivity, ratio >30-fold) | A (bin A for very high selectivity, ratio >30-fold) | A (bin A for very high selectivity, ratio >30-fold) | A (bin A for very high selectivity, ratio >30-fold)
